{
  "source": "patent US10010560B2",
  "about": "“Small molecule HSP70 inhibitors” (THE TRUSTEES OF THE UNIVERSITY OF PENNSYLVANIA, priority 2014, dated 2018)",
  "key": {"E. coli DH5α": {"test_system": "E. coli DH5α", "assay": "Growth of E. coli DH5α at 43° C.", "format": "cell-based", "protocol": "FIGS. 2A-2D illustrate the cytotoxicity of PET-16 to human tumor cells and its inhibition on E. coli growth. FIG. 2A is a line graph with data obtained from MTT assays of human melanoma cell lines treated with the indicated concentrations of PES or PET-16 for 72 h. The corresponding cell survival is normalized to vehicle (DMSO) treatment. Average and standard deviation (s.d.) from three independent experiments are shown. FIG. 2B are bar graphs of human melanoma (A875) cells and nontransformed human (IMR90) fibroblasts that were treated with DMSO, 10 μM PES or 10 μM PET-16 for 24 h. […] FIG. 2C is a line graph illustrating the growth of E. coli DH5α treated with different concentrations of PES or PET-16 for 6 h at 43° C. Error bars represent the s.d. of four independent experiments. FIG. 2D is a bar graph illustrating the growth of E. coli DH5α treated with DMSO, 30 μM PET-16 or 30 μM TPP for 6 h at 43° C. Error bars represent the s.d. of four independent experiments.\nFIGS. 9A-9H illustrate that PET-16 binds directly to ADP-bound HSP70 and is cytotoxic to human tumor cells. FIGS. 9A-9C are ITC assays of the interaction of PET-3C with purified human HSP70-ADP (A), human HSP70-ATP (B) and DnaK-ADP (C) proteins. The data are representative of three independent experiments. FIG. 9D is a line graph of an MTT assay of the human melanoma cell line 1205 Lu treated with the indicated concentrations of PET-16 (---) or PET-3C (-) for 72 h. The corresponding cell survival is normalized to the DMSO-treatment. Average and standard deviation (s.d.) from three independent experiments are shown. FIG. 9E is a line graph illustrating the growth of E. coli DH5α strain treated with different concentrations of PET-16 (black) or PET-3C (gray) for 6 h at 43° C. Error bars represent the s.d. of four independent experiments. FIG. 9F is a bar graph illustrating the growth of E. coli DH5α treated with DMSO, 30 μM PET-16, 30 μM PET-3C or 30 μM TPP for 6 h at 43° C. Error bars represent the s.d. of four independent experiments. […]"}, "[1]": {"test_system": "melanoma tumor cell lines", "assay": "Cellular ATP levels (AlamarBlue assay) in tumor cells", "format": "cell-based, human", "description": "FIGS. 5A-5F illustrates that PET-16 leads to loss of mitochondrial protein Cyclophilin D and impairs bioenergetics in tumor cells. FIGS. 5A-5D are western blots of HSP70, which is present at mitochondria of tumor H1299 cells but not in normal tissue, such as liver. The constitutively expressed 70 kDa family members, HSC70 and GRP75, are present in mitochondria of normal cells. Equal amounts of whole cell (WC)-, cytosolic (cyto)-, and mitochondrial (mito)-extracts prepared from cell lines H1299 (A, C) and MIA PaCa-2 (B) or normal (liver) cells (C, D) were examined by western blot analysis for the presence of the proteins indicated. […] Decreases of AlamarBlue® fluorescence, indicative of mitochondrial damage, are noted in PET-16-treated tumor cells (melanoma tumor cell line WM88 (-), melanoma tumor cell line WM3000 (×), melanoma tumor cell line WM852 (*), human melanoma 451 Lu cells (●), and melanoma tumor cell line WM989 (|), but not normal cells (nontransformed human fibroblasts (IMR90-♦) and primary melanocytes (▪)). Values are normalized to the vehicle-treated cells. Error bars represent standard deviation (s.d.) of four independent experiments."}, "HSP70": {"biological_target": "HSP70 (Homo sapiens, UniProt P0DMV8)", "sequence (P0DMV8 whole entry)": "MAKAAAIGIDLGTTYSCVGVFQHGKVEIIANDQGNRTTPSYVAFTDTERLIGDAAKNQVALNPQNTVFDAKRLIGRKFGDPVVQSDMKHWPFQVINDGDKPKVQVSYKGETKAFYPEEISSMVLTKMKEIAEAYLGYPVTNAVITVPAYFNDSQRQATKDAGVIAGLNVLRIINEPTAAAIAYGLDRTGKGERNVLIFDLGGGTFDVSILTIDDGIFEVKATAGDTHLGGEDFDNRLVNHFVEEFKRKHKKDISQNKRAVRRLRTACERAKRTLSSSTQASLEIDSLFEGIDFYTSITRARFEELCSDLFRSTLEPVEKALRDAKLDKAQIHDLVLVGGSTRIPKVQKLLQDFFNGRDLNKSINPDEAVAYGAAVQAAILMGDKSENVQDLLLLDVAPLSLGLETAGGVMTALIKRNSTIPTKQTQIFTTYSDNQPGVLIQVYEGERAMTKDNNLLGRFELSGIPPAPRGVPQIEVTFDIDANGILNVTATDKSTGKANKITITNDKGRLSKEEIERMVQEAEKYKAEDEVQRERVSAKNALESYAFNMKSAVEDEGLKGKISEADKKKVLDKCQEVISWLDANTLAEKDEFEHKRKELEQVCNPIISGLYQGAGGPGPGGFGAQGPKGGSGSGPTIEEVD", "assay": "Immunoprecipitation of HSP70 and co-precipitating proteins", "format": "cell-based", "set-up": "endogenous in cells; host or cells: A875 and 451 Lu human melanoma cells", "settings": "IP-WB, A875 or 451 Lu cells", "description": "FIGS. 4A-4L illustrate that PET-16 impairs proteostasis. […] There is a general absence of obvious nuclei in PET-16 treated tumor cells. […] FIGS. 4D and 4E are gels of whole-cell extracts (WCE) prepared from human melanoma A875 (D) or 451 Lu (E) cells treated with DMSO, PES or PET-16 that were immunoprecipitated using an anti-HSP70 antibody. The excised band of about 70 kDa shown in the Coomassie gel is HSP70, as confirmed by liquid chromatography—tandem mass spectrometry analysis. FIGS. 4F-4I are western blots of cell lines were treated with DMSO, PES or PET-16 for 24 h and immunoblotted for the indicated proteins. FIG. 4J are western blots of indicated melanomas pretreated with DMSO, PES or PET-16, followed by treatment with IL-6. Cell extracts were immunoblotted for the proteins indicated. Inhibition of IL-6 induced STAT3 and STAT1 phosphorylation by PET-16. FIG. 4K is a western blot analysis indicating altered processing of cathepsin L from the larger precursor form to the smaller mature form in the indicated cells following PET-16 treatment for 24 h. FIG. 4L is a western blot of the human melanoma 451 Lu cells treated with DMSO, PES or PET-16 for 24 h. Cells were harvested in 1% NP40-containing lysis buffer, fractionated into detergent-soluble and detergent-insoluble preparations, and assayed by western blot for ubiquitin. […]"}},
  "data": [
    {"molecule": "C(#C[P+](c1ccccc1)(c1ccccc1)c1ccccc1)c1ccccc1.[Br-]", "note": "[PET-16, triphenyl(phenylethynyl)phosphonium bromide]", "values": [
      {"measurement": "E. coli phenotype", "setting": "E. coli DH5α", "result": "cell filamentation and reduced viability"},
      {"measurement": "effect on growth of E. coli", "setting": "E. coli DH5α; 6 h at 43° C.", "result": "impaired bacterial growth"},
      {"measurement": "AlamarBlue fluorescence (mitochondrial function)", "setting": "[1]", "result": "clear decrease"},
      {"measurement": "interactions between HSP70 and client/substrate proteins", "setting": "HSP70", "result": "loss of interactions"}
    ]}
  ]
}
